{"source": "patent US20220096467A1", "about": "“COMBINATION OF SELECTIVE ALPHA-ADRENERGIC RECEPTOR AGONIST OR AN ANTICHOLINERGIC AGENT AND LIPOIC ACID AND USES THEREOF” (Cellix Bio Private Limited, priority 2019, published 2022)", "origin": "cited, not measured here", "system": "eyes of patients who had open angle glaucoma", "settings": "150 mg of ALA per day, controls received only topical medical therapy"}
{"smiles": "O=C(O)CCCCC1CCSS1", "note": "(stereo not drawn) [ALA, alpha lipoic acid]", "values": [{"measurement": "Eyes in the study with enhanced color visual fields and visual sensitivity versus the controls", "value": "45-47%"}]}
